# Assay results taken from patent US20160324876A1, “VITAMIN D AND ANTIBACTERIAL USES OF COMPOSITIONS THEREOF” (ZENSUN SCIENCE & TECHNOLOGY LIMITED, priority 2014, published 2016).
# Experiments:
# E. coli CFT073 [1] = test: Antibacterial experiment: VD3-stimulated 5637 bladder cells co-incubated with E. coli CFT073, CFU of cell lysate; type: cell-based; settings: 5637 cells stimulated by VD3 at different concentrations, FIG. 3
# Description: In this study, the final activated form of vitamin D, 1,25-dihydroxyvitamin D3 [1,25(OH)2D3] was the test substance, the human bladder cancer cells 5637 was used as experimental systems, the E. coli CFT073 was antibacterial target, cells treated by 1,25(OH)2D3 was co-incubated with E. coli CFT073. The E. coli CFT073 colony forming units (CFU) was used to examine whether 1,25(OH)2D3 achieved an antibacterial effect by stimulating cell lines derived from human to secrete antimicrobial peptides in vitro.
# (§1) 5637 cells in the condition of exponential growth and about 90% confluence were digested by pancreatin (GIBCO, Cat. No. 25200-056) for 5 min. When most of the cells came off from the culture plate, complete medium was added to terminate digestion. The non-peeling cells were blown down from the culture plate by a pipette, and were transferred to a 15 ml centrifuge tube. The cells were centrifuged at 1500 rpm for three minutes. The supernatant was discarded. The cell deposit was resuspended in complete medium to ensure that the cells uniformly dispersed.
# (§2) The cell suspension was counted by hemacytometer;
# The concentration of cell suspension was adjusted to 4×10^5/mL using incomplete RPMI 1640 medium;
# Each well of 6-well plate was inoculated with 2 mL cell suspension, the total number of cells per well was 8×10^5;
# 6-well plate was placed in an incubator under the condition of 37° C., 5% CO2. […]
# E. coli CFT073 [2] = test: Antibacterial experiment: VD3-stimulated SV-HUC1 urethral epithelial cells co-incubated with E. coli CFT073, CFU of cell lysate; type: cell-based; settings: SV-HUC1 cells stimulated by VD3 at different concentrations, FIG. 5
# Description: In this study, with the final activated form of vitamin D3, 1,25-dihydroxyvitamin D3 [1,25 (OH)2D3] as the test substance, the immortalized human urethral epithelial cells SV-HUC1 as experimental systems, the E. coli CFT073 as antibacterial target, the cells treated by 1,25 (OH) 2D3 were co-incubated with E. coli CFT073. The E. coli CFT073 colony forming units (CFU) were used to examine whether 1,25 (OH) 2D3 achieves an antibacterial effect by stimulating cell lines derived from human to secrete antimicrobial peptides in vitro.
# as §1, with “SV-HUC1” for “5637”, “dispersed uniformly.” for “uniformly dispersed.”
# as §2
# The concentration of cell suspension was adjusted to 4×10^5/mL using F12 incomplete medium;
# Each well of 6-well plate was inoculated with 2 mL cell suspension, the total number of cells per well was 8×10^5; […]
# LL-37 = test: ELISA of LL-37 in lysate of VD3-stimulated 5637 cells; type: cell-based, human; settings: 5637 cells stimulated with VD3 at different concentrations, FIG. 4
# Description: 3.2 ELISA Experiments about Effect of 1,25 (OH)2D3 on LL-37 Production 3.2.1 the Procedure of Inoculation (Day1), Administration (Day2), and E. coli infection bacteria solution preparation (Day 2&3) was the same as 3.1.1, 3.1.2 and 3.1.3.
# Cell lysate was obtained using the method of 3.1.4. Cell debris and bacteria were removed by 13000 rpm centrifugation for 5 min. Lysate supernatant was fetched out and LL-37 was quantified by Human LL-37 ELISA Kit (Hycult, Cat. No. HK321).
# E. coli O111B4 = test: Antibacterial experiment: supernatant of VD3-stimulated U-937 cells co-incubated with E. coli O111B4, colony count; type: cell-based; settings: for CFU: U937 supernatant
# Description: In this study, the final activated form of vitamin D, 1,25-dihydroxyvitamin D3 [1,25 (OH)2D3] was the test substance. The lymphoma U-937 cells of human tissue cell were used as experimental systems, the E. coli O111B4 was the antibacterial target. Cell supernatants treated by 1,25(OH)2D3 was co-incubated with E. coli O111B4. The E. coli O111B4 colony forming units (CFU) was used to examine whether 1,25(OH)2D3 achieved an antibacterial effect by stimulating cell lines derived from human to secrete antimicrobial peptides in vitro.
# U-937 cells in the condition of exponential growth were centrifuged (1000 rpm, 5 min);
# After centrifugation, the supernatant was discarded, and cell sediment was resuspended in an appropriate amount of RPMI1640 incomplete medium to make sure cells dispersed uniformly;
# The cell suspension was counted by hemacytometer counting;
# The concentration of cell suspension was adjusted to 1×10^5/mL using RPMI 1640 incomplete medium;
# Each well of 6-well plate was inoculated with 3 mL cell suspension, the total number of cells per well was 3×10^5;
# According to the label and the experimental design, 10 μL 200× test solution or vehicle of various concentrations with 0.5% (v/v) dose volume was added to each well.
# Each dose was repeated in two parallel wells, one well harvested after 24 hours, and the other well harvested after 48 hours;
# After administration, the 6-well plate was placed in 37° C., 5% CO2 incubator, cultured for 24 hours and 48 hours respectively.
# Day 1 afternoon, a E. coli O111B4 glycerol pipe was thawed, 10 μL glycerol bacteria was inoculated in 10 mL of LB liquid medium without any antibiotic, and was cultured on oscillator at 37° C. overnight; Day 2 morning, 200 μL cultured broth (1:100 ratio) cultured overnight was transferred to 20 mL LB liquid medium without any antibiotics and was cultured on oscillator at 37° C. until OD600 was 0.6-1.0, then the next step was antibacterial experiment (Day 3); the remaining overnight cultured broth was stored in the refrigerator at 2-8° C. until needed.
# Day 2 afternoon, 10 μL overnight cultured broth was inoculated in 10 mL LB medium without any antibiotics, and was cultured on oscillator at 37° C. overnight;
# Day 3 morning, 200 μL overnight cultured broth (1:100 ratio) was transferred to 20 mL LB medium without any antibiotics, and was cultured on oscillator at 37° C. until OD600 was 0.6-1.0, then the next step was antibacterial experiment (Day 3).
# Before the experiment started, 1.5% agar plate (lower medium) prepared beforehand was placed at room temperature for at least one hour;
# Top agar medium (containing 0.8%/agar) was melted, and packaged. Each 1.6 mL of Top agar medium was packaged in each tube, and then the small tube was placed in 45° C. water bath to keep warm;
# 10 mL E. coli bacteria of OD600 0.6-1.0 was transferred into 50 mL centrifuge tubes to centrifuge (1000 rpm×5 min); After centrifugation, the supernatant was discarded, the bacteria precipitate was resuspended by adding 10 mL PBS; the above-described bacterial suspension was diluted 1×10^5 fold in PBS dilution by multiple proportion dilution (from 10-fold); After the drug action finished (24 hours or 48 hours), U-937 cells was centrifugated (1000 rpm, 5 min). After centrifugation, the supernatant was drawn back;
# Each centrifuge tube previously added 50 μL diluted bacterial suspension (approximately 150-250 bacteria);
# Bacterial suspension were added with 1.2 mL cell supernatant from each cell supernatant, and mixed;
# The supernatant/bacterial mixture was placed on shaking table (200 rpm) at 37° C. and was incubated for 90 minutes. After incubation, the next step was plating;
# Plating: 0.8 mL of cell supernatant/broth mixture was mixed with 1.6 mL top agar medium, the mixture was plated on 1.5% agar plates, 600 uL per well in triplicate.
# Sterility test: 800 uL PBS and 1.6 mL top agar medium was mixed, and plated as above. […]
Structure (SMILES),antibacterial effect (relative CFU of 5637 cell lysate vs ethanol control) (E. coli CFT073 [1]),antibacterial activity of cell lysates (E. coli CFT073 [2]),LL-37 levels in cell lysates (LL-37),"CFU (E. coli O111B4; High dose, VD3 10^−7M, Day 1, Serum 10%)","CFU (E. coli O111B4; High dose, VD3 10^−7M, Day 2, Serum 1%)","CFU (E. coli O111B4; High dose, VD3 10^−7M, Day 2, Serum 10%)","CFU (E. coli O111B4; High dose, VD3 10^−7N, Day 1, Serum 1%)","CFU (E. coli O111B4; Low Dose, VD3 10^−8M, Day 1, Serum 1%)","CFU (E. coli O111B4; Low Dose, VD3 10^−8M, Day 1, Serum 10%)","CFU (E. coli O111B4; Low Dose, VD3 10^−8M, Day 2, Serum 1%)","CFU (E. coli O111B4; Low Dose, VD3 10^−8M, Day 2, Serum 10%)",antibacterial effect of supernatant solution (E. coli O111B4; U937 cells stimulated by different concentrations of VD3),"colonies produced (E. coli O111B4; antibiotics control experiment: PBS, broth, 2 uL ampicillin, top agar)"
"C=C1/C(=C\C=C2/CCC[C@]3(C)[C@@H]([C@H](C)CCCC(C)(C)O)CC[C@@H]23)C[C@@H](O)C[C@@H]1O [VD3, 1,25-dihydroxyvitamin D3]",significant antibacterial effect,significant antibacterial activity,significant dose-dependent increase,172,112,127,108,102,112,93,97,significant antibacterial effect,
"CC1(C)S[C@@H]2[C@H](NC(=O)[C@H](N)c3ccccc3)C(=O)N2[C@H]1C(=O)O [antibiotic control group, ampicillin]",,,,,,,,,,,,,no colonies produced
